Laboratory results as given in ChEMBL document CHEMBL1125820, “Structure-activity relationship of mutagenic aromatic and heteroaromatic nitro compounds. Correlation with molecular orbital energies and hydrophobicity” (J Med Chem, 1991).

Tests used:
[1] = Partition coefficient (logP); conditions: octanol/water
[2] = tested on: Salmonella typhimurium; experiment: Mutagenic activity in an Ames test on Salmonella Typhimurium TA98; Activity is log of revertants/nmol; assay type: functional, Salmonella enterica subsp. enterica serovar Typhimurium; parameters: scale not given here

| Structure (SMILES) | logP [1] | Activity [2] |
| --- | --- | --- |
| O=[N+]([O-])C1=Cc2c3ccc4ccccc4c3cc3cccc1c23 | 5.07 | 0.86 |
| Cc1ccccc1-c1ccc([N+](=O)[O-])c(C)c1 | 4.49 | -0.84 |
| O=[N+]([O-])c1ccc2ccc3cccc4c5c(c1c2c34)CCCC5 | 6.26 | 0.7 |
| CC(=O)Oc1cc([N+](=O)[O-])c2ccc3cccc4ccc1c2c43 | 4.42 | 4.22 |
| O=[N+]([O-])c1cc2c3c(ccc4cc([N+](=O)[O-])cc(c43)CC2)c1 | 4.73 | 4.25 |
| CN1Cc2cccc([N+](=O)[O-])c2N1 | 1.77 | 0.23 |
| O=[N+]([O-])c1cc(Cl)ccc1Cl | 2.9 | -1.54 |
| O=C(Nc1ccc2c(c1)Cc1cc([N+](=O)[O-])ccc1-2)C(F)(F)F | 4.23 | 2.81 |
| Nc1ccc2c(c1)Cc1cc([N+](=O)[O-])ccc1-2 | 3.06 | 1.56 |
| O=[N+]([O-])c1cc2ccccc2c2ccc3ccccc3c12 | 5.41 | -0.22 |
| O=[N+]([O-])c1ccc2c(c1)Cc1cc(F)ccc1-2 | 4.11 | 2.68 |
| O=[N+]([O-])c1c2ccccc2cc2c1ccc1ccccc12 | 5.41 | -0.52 |
| O=[N+]([O-])c1ccc2c(c1)-c1ccc([N+](=O)[O-])c3cccc-2c13 | 4.44 | 5.02 |
| O=[N+]([O-])c1cc2c3c(ccc4cccc(c43)CC2)c1 | 4.99 | 3.27 |
| O=[N+]([O-])c1ccc2c(c1)CC=C2 | 2.74 | 0.96 |
| O=[N+]([O-])c1ccc(-c2cccc([N+](=O)[O-])c2)cc1 | 3.52 | 0.23 |
| O=[N+]([O-])c1ccc2c(c1)Cc1cc([N+](=O)[O-])ccc1-2 | 3.35 | 3.22 |
| O=[N+]([O-])c1c2ccccc2c2ccc3cccc4ccc1c2c43 | 5.87 | 1.64 |
| O=[N+]([O-])c1cccc2ncccc12 | 1.86 | -0.96 |
| O=[N+]([O-])c1cc([N+](=O)[O-])c2c3c(c4cccc5ccc1c2c54)CCCC3 | 6.01 | 2.41 |
| O=[N+]([O-])c1ccc2c(c1)C=CC2 | 2.74 | 0.08 |
| O=[N+]([O-])c1ccc(-c2ccc([N+](=O)[O-])cc2)cc1 | 3.52 | 1.17 |
| O=[N+]([O-])c1cc2c3c(cc([N+](=O)[O-])cc3c1)-c1ccccc1-2 | 4.44 | 2.32 |

| Structure (SMILES) | logP [1] | Activity [2] |
| --- | --- | --- |
| O=[N+]([O-])c1ccc2c(c1)Cc1cc(O)ccc1-2 | 3.43 | 1.68 |
| O=[N+]([O-])c1cccc2c([N+](=O)[O-])cccc12 | 2.58 | 0.52 |
| O=[N+]([O-])c1ccc2ccc3cc4c(c5ccc1c2c35)CCCC4 | 6.57 | 0.9 |
| O=[N+]([O-])c1cc2ccccc2c2ccccc12 | 4.23 | 2.25 |
| COc1cc([N+](=O)[O-])c2ncccc2c1 | 1.87 | -1.21 |
| CN1Cc2cc([N+](=O)[O-])ccc2N1 | 1.77 | -1.1 |
| O=[N+]([O-])c1cccc2cccc([N+](=O)[O-])c12 | 2.52 | 0.9 |
| O=[N+]([O-])c1ccc2c3ccc([N+](=O)[O-])c4ccc5ccc6ccc1c2c6c5c43 | 6.07 | 3.6 |
| O=[N+]([O-])c1ccc2cccc3c2c1C=C3 | 3.36 | 1.77 |
| O=[N+]([O-])c1cc2c3c(c1)CCc1cc([N+](=O)[O-])cc(c1-3)CC2 | 5.02 | 3.5 |
| O=[N+]([O-])c1ccc2ccc3c([N+](=O)[O-])cc([N+](=O)[O-])c4ccc1c2c34 | 4.18 | 4.99 |
| O=[N+]([O-])c1ccc2oc3ccccc3c2c1 | 3.83 | 1.64 |
| O=[N+]([O-])c1ccc2c(c1)-c1cccc3cccc-2c13 | 4.69 | 4.05 |
| O=[N+]([O-])c1cc2c3c(cccc3c1[N+](=O)[O-])-c1ccccc1-2 | 4.44 | 2.62 |
| O=[N+]([O-])c1cc2ccc3ccc4ccc5ccc6ccc1c1c6c5c4c3c21 | 6.79 | 0.45 |
| CN1Cc2ccc([N+](=O)[O-])cc2N1 | 1.77 | -0.41 |
| O=[N+]([O-])c1ccc2c(c1)Oc1ccccc1O2 | 4.73 | 1.79 |
| O=[N+]([O-])c1ccc2ccc3c([N+](=O)[O-])ccc4ccc1c2c43 | 4.44 | 5.06 |
| Cn1ncc2cc([N+](=O)[O-])ccc21 | 1.77 | -0.82 |
| O=C1c2ccccc2-c2cc([N+](=O)[O-])ccc21 | 3.06 | 2.13 |
| O=[N+]([O-])c1ccc2c3c(cccc13)-c1ccccc1-2 | 4.69 | 3.67 |
| O=[N+]([O-])c1ccc2c3c(c4cccc5ccc1c2c54)CCCC3 | 6.26 | 0.78 |
| Cc1cc2ccccc2cc1[N+](=O)[O-] | 3.43 | 0 |

| Structure (SMILES) | logP [1] | Activity [2] |
| --- | --- | --- |
| Cn1ncc2cccc([N+](=O)[O-])c21 | 1.77 | -1 |
| O=[N+]([O-])c1ccc2c(c1)Cc1cc(Cl)ccc1-2 | 4.68 | 3.11 |
| Nc1ccc(Cl)cc1[N+](=O)[O-] [4-CHLORO-2-NITROANILINE] | 2.72 | -2 |
| O=[N+]([O-])c1ccc2[nH]c3ccccc3c2c1 | 3.51 | -0.7 |
| O=[N+]([O-])c1cc(O)c2ccc3cccc4ccc1c2c34 | 4.66 | 3.87 |
| O=[N+]([O-])C1=Cc2cccc3c2c1cc1cc2ccccc2cc13 | 5.07 | 0.92 |
| O=[N+]([O-])c1ccc(-c2ccccc2)cc1 | 3.77 | -0.3 |
| O=C/C=C/c1ccc([N+](=O)[O-])o1 | 0.96 | 1.97 |
| Nc1cccc(-c2cccc([N+](=O)[O-])c2)c1 | 2.68 | -1.7 |
| O=[N+]([O-])c1c(Cl)c(Cl)c2c(c1Cl)Oc1cc(Cl)c(Cl)cc1O2 | 7.84 | -0.33 |
| O=[N+]([O-])c1ccc2cn[nH]c2c1 | 2.06 | 0.66 |
| O=[N+]([O-])c1ccc2c(c1)Cc1ccccc1-2 [2-NITROFLUORENE] | 3.37 | 1.43 |
| C=Cc1ccc([N+](=O)[O-])cc1 | 2.61 | -1.3 |
| O=[N+]([O-])c1cc([N+](=O)[O-])c2ccc3cccc4ccc1c2c43 | 4.44 | 5.04 |
| Cc1nc2cc([N+](=O)[O-])ccc2[nH]1 | 1.94 | -0.51 |
| O=[N+]([O-])c1cc2c(cc1Cl)Oc1cc(Cl)c(Cl)cc1O2 | 6.68 | -0.53 |
| O=[N+]([O-])c1ccc2c3c(ccc([N+](=O)[O-])c13)-c1ccccc1-2 | 4.44 | 3.62 |
| O=[N+]([O-])c1ccc2ccc3ccc(O)c4ccc1c2c34 | 4.19 | 1.49 |
| O=C(/C=C/c1ccccc1)c1ccc([N+](=O)[O-])cc1 | 2.83 | -1.15 |
| CC(=O)Oc1ccc2c(c1)Cc1cc([N+](=O)[O-])ccc1-2 | 3.46 | 1.86 |
| O=[N+]([O-])c1cc2c3c(c([N+](=O)[O-])c([N+](=O)[O-])cc3c1)-c1ccccc1-2 | 4.18 | 3.16 |
| Nc1ccc2ccc3ccc([N+](=O)[O-])c4ccc1c2c34 | 3.63 | 2.43 |
| O=[N+]([O-])c1cccc(Cl)c1Cl | 3.05 | -1.51 |

| Structure (SMILES) | logP [1] | Activity [2] |
| --- | --- | --- |
| Nc1c(Br)cc([N+](=O)[O-])cc1[N+](=O)[O-] | 2.78 | -1.32 |
| O=[N+]([O-])c1ccc2ccc3c4c(cc5ccc1c2c53)C(O)C(O)C=C4 (stereo not drawn) | 3.01 | 3.08 |
| O=[N+]([O-])c1ccc2cccc3c2c1CC3 | 3.81 | 1 |
| O=[N+]([O-])c1cccc2cn[nH]c12 [7-NITROINDAZOLE] | 1.75 | 0.11 |
| O=[N+]([O-])c1cc2c3c(ccc([N+](=O)[O-])c3c1)-c1ccccc1-2 | 4.44 | 3.78 |
| Nc1ccc([N+](=O)[O-])cc1[N+](=O)[O-] | 1.84 | -1.74 |
| O=[N+]([O-])C1=CC2Nc3ccc([N+](=O)[O-])cc3NC2C=C1 (stereo not drawn) | 2.29 | 4.34 |
| O=Cc1ccc([N+](=O)[O-])o1 | 1.01 | 0.64 |
| O=[N+]([O-])C1=CC=CC2Nc3cccc([N+](=O)[O-])c3NC12 (stereo not drawn) | 2.29 | 1.26 |
| O=[N+]([O-])C1=Cc2cc3cc4ccccc4cc3c3cccc1c23 | 5.07 | 0.67 |
| Nc1ccccc1-c1cccc([N+](=O)[O-])c1 | 2.68 | -1.52 |
| O=[N+]([O-])c1cccc2cnccc12 | 1.65 | -1.55 |
| O=[N+]([O-])c1ccc(F)cc1[N+](=O)[O-] | 1.89 | -1.84 |
| O=[N+]([O-])c1cc2c3c(cccc3c1)-c1ccccc1-2 | 4.69 | 3.01 |
| O=[N+]([O-])C1=CC2Nc3cc([N+](=O)[O-])ccc3NC2C=C1 (stereo not drawn) | 2.29 | 2.75 |
| CCOc1ccccc1[N+](=O)[O-] | 2.35 | -2.22 |
| O=[N+]([O-])c1ccc2c3c([N+](=O)[O-])ccc4ccc5ccc6ccc1c2c6c5c43 | 6.07 | 4.33 |
| O=[N+]([O-])c1ccc2c3c(cccc13)-c1cc3ccccc3cc1-2 | 5.87 | 2.76 |
| Nc1ccc(-c2cccc([N+](=O)[O-])c2)cc1 | 2.68 | -1.52 |
| O=[N+]([O-])c1cc2cccnc2c2ncccc12 | 1.84 | 0.59 |
